Measured values taken from publication PMC6572176, “Functional Glyco-Nanogels for Multivalent Interaction with Lectins” (Molecules, 2019).

Key:
[1] = biological target: T1, Ulex europaeus agglutinin I (UEA I) (Ulex europaeus, UniProt P22972); test: ELISA-type competitive inhibition, fluorescein-labeled lectin on immobilized porcine stomach mucin; format: binding; conditions: 10 mM HEPES, 150 mM NaCl, 0.1 mM CaCl2, pH 7.5, 1 h
T1 construct: native plant lectin, fluorescein-labeled (Vector Laboratories)
T1 sequence (P22972 1-243): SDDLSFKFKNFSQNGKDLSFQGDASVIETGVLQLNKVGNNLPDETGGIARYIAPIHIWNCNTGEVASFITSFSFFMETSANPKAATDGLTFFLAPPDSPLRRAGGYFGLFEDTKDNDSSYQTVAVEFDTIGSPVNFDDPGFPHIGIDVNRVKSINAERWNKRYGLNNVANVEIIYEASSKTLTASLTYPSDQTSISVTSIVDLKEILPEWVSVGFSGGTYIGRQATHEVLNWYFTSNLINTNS

[2] = biological target: T2, Erythrina cristagalli lectin (ECL) (Erythrina crista-galli, UniProt P83410); test: ELISA-type competitive inhibition, fluorescein-labeled lectin on immobilized asialofetuin; format: binding; conditions: 10 mM HEPES, 150 mM NaCl, 0.1 mM CaCl2, pH 7.5, 1 h
T2 construct: native plant lectin, fluorescein-labeled (Vector Laboratories); dimeric
T2 sequence (P83410 1-239): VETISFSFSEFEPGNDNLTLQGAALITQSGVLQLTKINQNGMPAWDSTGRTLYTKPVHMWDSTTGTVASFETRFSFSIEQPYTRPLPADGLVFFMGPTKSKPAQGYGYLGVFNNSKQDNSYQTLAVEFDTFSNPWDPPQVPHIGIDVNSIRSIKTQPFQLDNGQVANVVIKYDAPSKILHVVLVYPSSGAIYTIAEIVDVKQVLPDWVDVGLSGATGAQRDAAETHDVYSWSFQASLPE

## C[C@@H]1OC(O)[C@@H](O)[C@H](O)[C@@H]1O (some centres unmarked) [fucose]
[1]
  IC50: The IC50 value of fucose for UEA I binding is three-times

## OC[C@H]1O[C@@H](O[C@H]2[C@H](O)[C@@H](O)C(O)O[C@@H]2CO)[C@H](O)[C@@H](O)[C@H]1O (some centres unmarked) [lactose]
[2]
  IC50: free lactose is a potent inhibitor for ECL with IC50 in the same range
